Measurements taken from publication PMC11289455 (Scientific Reports, 2024).
“And” between values parts separate entries of the source, which are not always exact repeats. Equal entries are not always repeated. Positions of bridges follow the written chain, without caps; N, C: chain ends. Non-standard residues stand in square brackets, D forms with d. Trp(7-Me) = Cc1cccc2c(C[C@H](N)C(=O)O)c[nH]c12; 2Nal = N[C@@H](Cc1ccc2ccccc2c1)C(=O)O; AEF = NCCOc1ccc(C[C@H](N)C(=O)O)cc1; 3Pal = N[C@@H](Cc1cccnc1)C(=O)O; Pen = CC(C)(S)[C@H](N)C(=O)O; Thp = NC1(C(=O)O)CCOCC1; Sar = CNCC(=O)O

T1: Biotinylated recombinant rat IL23R (rIL23R^biot, hGH.ratIL23R.24-317.GS.Avi.TEV.8His) (rat, UniProt F1LX96 24-317, biotinylated (TurboBiotinylase))
T1 construct: rat IL-23 receptor subunit IL-23R, extracellular domain, residues 24-317, from the construct name hGH.ratIL23R.24-317.GS.Avi.TEV.8His; A GS linker stands between the receptor and the Avi tag; The 8His tag follows a TEV site; also called rat IL-23R ECD; not shown: Avi, C-terminal, kept; His8, C-terminal, cleaved
T1 sequence (looked up): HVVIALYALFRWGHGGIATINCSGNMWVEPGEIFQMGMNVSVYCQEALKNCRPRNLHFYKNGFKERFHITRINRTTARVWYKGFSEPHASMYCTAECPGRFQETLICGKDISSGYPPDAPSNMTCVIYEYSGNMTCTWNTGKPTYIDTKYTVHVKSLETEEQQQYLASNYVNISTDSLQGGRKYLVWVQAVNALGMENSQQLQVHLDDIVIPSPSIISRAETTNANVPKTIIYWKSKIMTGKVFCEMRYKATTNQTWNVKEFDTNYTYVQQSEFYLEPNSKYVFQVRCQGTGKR


Experiments:
[1] = system: IL-12– and IL-23–dependent phosphorylation of STAT4 and STAT3; parameters: method as in PMID 31341059; conditions: cited from earlier work
[2] = target: T1, Biotinylated recombinant rat IL23R …; test: SPR; ~2500 RU biotinylated rat IL-23R captured on a streptavidin chip; JNJ-77242113 injected at multiple concentrations; PBS, 0.05% P20, 5% DMSO; 37 °C; association 150 s, dissociation 2000 s; Biacore 8K+, parallel kinetics, 1:1 binding model; conditions: both partners purified

Row | Kd [2] | Molecule | Effect on IL-12– and IL-23–dependent phosphorylation of STAT4 and STAT3 [1]
1 |  | deucravacitinib | inhibits both
2 | 0.0175 nM and 0.012 to 0.023 nM | Ac-[Pen]NT[Trp(7-Me)]K(Ac)[Pen][AEF][2Nal][Thp]EN[3Pal][Sar]-NH2 (disulfide 1-6) [JNJ-77242113] | 
